Assays:
Assay type in all cases: in vivo
[1] = system: eggs of Thrips; assay: Effect on hatching of eggs of Thrips, leaf disc method; details: 100 ppm; for Hatching rate (%): 5 days after insecticide delivery
In short: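 Thrip egg hatching was tested by the leaf disc method on Vicia faba discs 2.0 cm across, placed over wetted filter paper. Egg numbers on each disc were counted under a microscope before treatment. Discs were then dipped for 10 seconds in clean water or a compound solution at 100 ppm. They were kept moist under normal conditions, and hatching was surveyed five days after insecticide delivery.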

[2] = system: eggs of Tetranychus urticae; assay: Effect on hatching of eggs of Tetranychus urticae, leaf disc method; details: 5 ppm; for Hatching rate (%): 5 days after insecticide delivery
In short: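 Twenty adult female Tetranychus urticae mites were placed on 2.0 cm Vicia faba leaf discs over wetted filter paper in lidded dishes kept moist, and removed within 36 hours. Eggs on each disc were counted under a microscope. The egg-bearing discs were dipped for 10 seconds in a compound solution at 5 ppm or in clear water, then kept moist, and hatching was checked five days after treatment.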

[3] = system: eggs of Aleyrodidae; assay: Effect on hatching of eggs of Aleyrodidae, leaf disc method; details: 10 ppm; for Hatching rate (%), Replicate 1 / Hatching rate (%), Replicate 2 / Hatching rate (%), Replicate 3 / Number of hatched larvae 5 days after insecticide delivery, Replicate 1 / Number of hatched larvae 5 days after insecticide delivery, Replicate 2 / Number of hatched larvae 5 days after insecticide delivery, Replicate 3: Aleyrodidae eggs; for Hatching rate (%), Replicate 1 / Hatching rate (%), Replicate 2 / Hatching rate (%), Replicate 3: 5 days after delivery; for Number of hatched larvae 5 days after insecticide delivery, Replicate 1 / Number of hatched larvae 5 days after insecticide delivery, Replicate 2 / Number of hatched larvae 5 days after insecticide delivery, Replicate 3: leaf disc
In short: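 Inhibition of Aleyrodidae egg hatching was tested with a leaf disc method at 10 ppm. Egg numbers on each disc were counted under a microscope before treatment. Discs bearing eggs were soaked for 10 seconds in clear water or test solution, removed, and kept under moist conditions. Hatching was checked five days after insecticide delivery and hatched larvae were counted.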

[4] = system: eggs of Harmonia axyridis; assay: Effect on hatching of eggs of Harmonia axyridis, egg card immersion; details: 100 ppm; for Number of hatched larvae 4 days after insecticide delivery, Replicate 1 / Number of hatched larvae 4 days after insecticide delivery, Replicate 2 / Number of hatched larvae 4 days after insecticide delivery, Replicate 3: Harmonia axyridis egg cards, immersed 30 seconds; for Hatching rate (%), Replicate 1 / Hatching rate (%), Replicate 2 / Hatching rate (%), Replicate 3: Harmonia axyridis eggs, 4 days after delivery
In short: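 Egg cards (~20 eggs each) dipped 30 s in 100 ppm insecticide, air dried and kept moist at 27° C; 5 cards per treatment, 3 replicates. Hatching assessed 4 days after treatment against pre-treatment egg counts, and control effect calculated by formula.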

[5] = Replicate 1, listed as 19′-(S, S)
[6] = Replicate 2, listed as 19′-(S, S)
[7] = Replicate 3, listed as 19′-(S, S)

## CC[C@@H](COS(=O)OCCF)Oc1ccc(Cl)cc1Cl (stereo partly drawn) [19′-(S,S)]
[1]
  inhibitory activity on the hatching of eggs of Thrips (in words): strong inhibitory activities
[1]; [5]
  Hatching rate (%): 0.00%
  Number of hatched larvae 5 days after insecticide delivery: 0
[1]; [6]
  Hatching rate (%): 0.00%
  Number of hatched larvae 5 days after insecticide delivery: 0
[1]; [7]
  Hatching rate (%): 0.00%
  Number of hatched larvae 5 days after insecticide delivery: 0
[2]
  inhibitory activity on the hatching of eggs of Tetranychus urticae (in words): strong inhibitory activities
[2]; [5]
  Hatching rate (%): 0.00%
  Number of hatched larvae 5 days after insecticide delivery: 0
[2]; [6]
  Hatching rate (%): 0.00%
  Number of hatched larvae 5 days after insecticide delivery: 0
[3]
  inhibitory activity on the hatching of eggs of Aleyrodidae (in words): strong inhibitory activities
[3]; listed as 19′-(S, S)
  Hatching rate (%), Replicate 1: 0.00%
  Hatching rate (%), Replicate 2: 0.00%
  Hatching rate (%), Replicate 3: 0.00%
  Number of hatched larvae 5 days after insecticide delivery, Replicate 1: 0
  Number of hatched larvae 5 days after insecticide delivery, Replicate 2: 0
  Number of hatched larvae 5 days after insecticide delivery, Replicate 3: 0
[4]
  inhibitory activity on the hatching of eggs of Harmonia axyridis (in words): strong inhibitory activities
[4]; listed as 19′-(S, S)
  Number of hatched larvae 4 days after insecticide delivery, Replicate 1: 0
  Number of hatched larvae 4 days after insecticide delivery, Replicate 2: 0
  Number of hatched larvae 4 days after insecticide delivery, Replicate 3: 0
  Hatching rate (%), Replicate 1: 0.00%
  Hatching rate (%), Replicate 2: 0.00%
  Hatching rate (%), Replicate 3: 0.00%

## CC(COS(=O)OCCF)Oc1ccc(Cl)cc1Cl (stereo not shown) [Compound 1]
[1]
  inhibitory activity on the hatching of eggs of Thrips (in words): strong inhibitory activities
[1]; Replicate 1
  Hatching rate (%): 0.00%
  Number of hatched larvae 5 days after insecticide delivery: 0
[1]; Replicate 2
  Hatching rate (%): 1.57%
  Number of hatched larvae 5 days after insecticide delivery: 2
[1]; Replicate 3
  Hatching rate (%): 0.00%
  Number of hatched larvae 5 days after insecticide delivery: 0
[2]
  inhibitory activity on the hatching of eggs of Tetranychus urticae (in words): strong inhibitory activities
[2]; Replicate 1
  Hatching rate (%): 0.94%
  Number of hatched larvae 5 days after insecticide delivery: 1
[2]; Replicate 2
  Hatching rate (%): 1.30%
  Number of hatched larvae 5 days after insecticide delivery: 1
[3]
  inhibitory activity on the hatching of eggs of Aleyrodidae (in words): strong inhibitory activities
  Hatching rate (%), Replicate 1: 0.00%
  Hatching rate (%), Replicate 2: 1.50%
  Hatching rate (%), Replicate 3: 0.00%
  Number of hatched larvae 5 days after insecticide delivery, Replicate 1: 0
  Number of hatched larvae 5 days after insecticide delivery, Replicate 2: 2
  Number of hatched larvae 5 days after insecticide delivery, Replicate 3: 0
[4]
  inhibitory activity on the hatching of eggs of Harmonia axyridis (in words): strong inhibitory activities
  Number of hatched larvae 4 days after insecticide delivery, Replicate 1: 7
  Number of hatched larvae 4 days after insecticide delivery, Replicate 2: 6
  Number of hatched larvae 4 days after insecticide delivery, Replicate 3: 6
  Hatching rate (%), Replicate 1: 6.25%
  Hatching rate (%), Replicate 2: 6.38%
  Hatching rate (%), Replicate 3: 6.06%

## CC(COc1ccc(Cl)cc1Cl)OS(=O)OCCF (stereo not shown) [Compound 1′]
[1]
  inhibitory activity on the hatching of eggs of Thrips (in words): strong inhibitory activities
[1]; Replicate 1
  Hatching rate (%): 0.00%
  Number of hatched larvae 5 days after insecticide delivery: 0
[1]; Replicate 2
  Hatching rate (%): 0.00%
  Number of hatched larvae 5 days after insecticide delivery: 0
[1]; Replicate 3
  Hatching rate (%): 0.97%
  Number of hatched larvae 5 days after insecticide delivery: 1
[2]
  inhibitory activity on the hatching of eggs of Tetranychus urticae (in words): strong inhibitory activities
[2]; Replicate 1
  Hatching rate (%): 0.00%
  Number of hatched larvae 5 days after insecticide delivery: 0
[2]; Replicate 2
  Hatching rate (%): 1.98%
  Number of hatched larvae 5 days after insecticide delivery: 2
[3]
  inhibitory activity on the hatching of eggs of Aleyrodidae (in words): strong inhibitory activities
  Hatching rate (%), Replicate 1: 1.87%
  Hatching rate (%), Replicate 2: 0.00%
  Hatching rate (%), Replicate 3: 1.14%
  Number of hatched larvae 5 days after insecticide delivery, Replicate 1: 2
  Number of hatched larvae 5 days after insecticide delivery, Replicate 2: 0
  Number of hatched larvae 5 days after insecticide delivery, Replicate 3: 1
[4]
  inhibitory activity on the hatching of eggs of Harmonia axyridis (in words): strong inhibitory activities
  Number of hatched larvae 4 days after insecticide delivery, Replicate 1: 6
  Number of hatched larvae 4 days after insecticide delivery, Replicate 2: 4
  Number of hatched larvae 4 days after insecticide delivery, Replicate 3: 7
  Hatching rate (%), Replicate 1: 5.88%
  Hatching rate (%), Replicate 2: 4.17%
  Hatching rate (%), Replicate 3: 6.60%

## CC(C)(COc1ccc(Cl)cc1Cl)OS(=O)OCCF (stereo not shown) [Compound 10]
[1]
  inhibitory activity on the hatching of eggs of Thrips (in words): strong inhibitory activities
[1]; Replicate 1
  Hatching rate (%): 0.99%
  Number of hatched larvae 5 days after insecticide delivery: 1
[1]; Replicate 2
  Hatching rate (%): 0.00%
  Number of hatched larvae 5 days after insecticide delivery: 0
[1]; Replicate 3
  Hatching rate (%): 0.00%
  Number of hatched larvae 5 days after insecticide delivery: 0
[2]
  inhibitory activity on the hatching of eggs of Tetranychus urticae (in words): strong inhibitory activities
[2]; Replicate 1
  Hatching rate (%): 1.94%
  Number of hatched larvae 5 days after insecticide delivery: 2
[2]; Replicate 2
  Hatching rate (%): 1.35%
  Number of hatched larvae 5 days after insecticide delivery: 1
[3]
  inhibitory activity on the hatching of eggs of Aleyrodidae (in words): strong inhibitory activities
  Hatching rate (%), Replicate 1: 0.76%
  Hatching rate (%), Replicate 2: 0.00%
  Hatching rate (%), Replicate 3: 1.61%
  Number of hatched larvae 5 days after insecticide delivery, Replicate 1: 1
  Number of hatched larvae 5 days after insecticide delivery, Replicate 2: 0
  Number of hatched larvae 5 days after insecticide delivery, Replicate 3: 2
[4]
  inhibitory activity on the hatching of eggs of Harmonia axyridis (in words): strong inhibitory activities
  Number of hatched larvae 4 days after insecticide delivery, Replicate 1: 4
  Number of hatched larvae 4 days after insecticide delivery, Replicate 2: 3
  Number of hatched larvae 4 days after insecticide delivery, Replicate 3: 7
  Hatching rate (%), Replicate 1: 4.04%
  Hatching rate (%), Replicate 2: 3.85%
  Hatching rate (%), Replicate 3: 5.56%

## CC(C)(COS(=O)OCCF)Oc1ccc(Cl)cc1Cl (stereo not shown) [Compound 10′]
[1]
  inhibitory activity on the hatching of eggs of Thrips (in words): strong inhibitory activities
[1]; Replicate 1
  Hatching rate (%): 0.00%
  Number of hatched larvae 5 days after insecticide delivery: 0
[1]; Replicate 2
  Hatching rate (%): 1.55%
  Number of hatched larvae 5 days after insecticide delivery: 2
[1]; Replicate 3
  Hatching rate (%): 0.00%
  Number of hatched larvae 5 days after insecticide delivery: 0
[2]
  inhibitory activity on the hatching of eggs of Tetranychus urticae (in words): strong inhibitory activities
[2]; Replicate 1
  Hatching rate (%): 1.18%
  Number of hatched larvae 5 days after insecticide delivery: 1
[2]; Replicate 2
  Hatching rate (%): 1.10%
  Number of hatched larvae 5 days after insecticide delivery: 1
[3]
  inhibitory activity on the hatching of eggs of Aleyrodidae (in words): strong inhibitory activities
  Hatching rate (%), Replicate 1: 2.02%
  Hatching rate (%), Replicate 2: 0.97%
  Hatching rate (%), Replicate 3: 1.05%
  Number of hatched larvae 5 days after insecticide delivery, Replicate 1: 2
  Number of hatched larvae 5 days after insecticide delivery, Replicate 2: 1
  Number of hatched larvae 5 days after insecticide delivery, Replicate 3: 1
[4]
  inhibitory activity on the hatching of eggs of Harmonia axyridis (in words): strong inhibitory activities
  Number of hatched larvae 4 days after insecticide delivery, Replicate 1: 5
  Number of hatched larvae 4 days after insecticide delivery, Replicate 2: 5
  Number of hatched larvae 4 days after insecticide delivery, Replicate 3: 6
  Hatching rate (%), Replicate 1: 5.75%
  Hatching rate (%), Replicate 2: 5.26%
  Hatching rate (%), Replicate 3: 4.92%

Reference: patent US20260184675A1, “CHIRAL ISOMERIC SULFITE COMPOUND AND APPLICATION THEREOF” (Chengdu Hanova BioSciences Co., Ltd, priority 2024, published 2026)
